Article PMC9072125 (RSC Advances, 2019)

System: LfDAPDH
Conditions: 200 mM NH4Cl, 0.5 mM NADPH, 50 mM Na2CO3/NaHCO3 pH 9.0, 30 °C; reductive amination

O=C(O)C(=O)Cc1ccccc1 [PPA] gave a Km of 7.61 ± 0.14 mM.
